From ChEMBL document CHEMBL4270632, “CD73 inhibition by purine cytotoxic nucleoside analogue-based diphosphonates” (Eur J Med Chem, 2018) come the findings set out here.

Usually IC50 stands for the point on the concentration scale where inhibition reaches its midpoint.

Molecules are shown by their SMILES. Calls of active or inactive are those of the source. No cut-off for these calls is given here.

One experiment has as its system Granta. In words: Cytotoxicity against human Granta cells assessed as decrease in cell viability after 72 hrs by MTT assay. The class given is cell-based. For orientation: Tetrazolium assays rely on reduction of a dye to a coloured formazan, in cell work by metabolically active cells.
A further experiment concerns CCRF-CEM. Description: Cytotoxicity against human CCRF-CEM cells assessed as decrease in cell viability after 72 hrs by MTT assay. The class given is cell-based.
In a further experiment the test system is HL-60. In words: Cytotoxicity against human HL60 cells assessed as decrease in cell viability after 72 hrs by MTT assay. The class given is cell-based. Conditions: HL-60, 72 h.
The next experiment has as its system RL. In words: Cytotoxicity against human RL cells assessed as decrease in cell viability after 72 hrs by MTT assay. The class given is cell-based.
Experiment [1] has as its target T1, 5'-nucleotidase (Homo sapiens, UniProt P21589). Description: Inhibition of recombinant CD73 (27 to 549 residues) (unknown origin) expressed in baculovirus infected Sf9 insect cells assessed as reduction in conversion of AMP to adenosine incubated for 1 min followed by AMP addition measured after 3.5 mins by malachite green reagent based assay.
The target in experiment [2] is T1, 5'-nucleotidase. Description: Inhibition of CD73 in human NCI-H292 cells assessed as reduction in conversion of AMP to adenosine incubated for 30 mins by malachite green reagent based assay. The class given is cell-based.
In experiment [3] the target is T1, 5'-nucleotidase. In words: Inhibition of CD73 in human MDA-MB-231 cells assessed as reduction in conversion of AMP to adenosine incubated for 30 mins by malachite green reagent based assay. The class given is cell-based.

T1 sequence (P21589 whole entry, the tested form may be a part): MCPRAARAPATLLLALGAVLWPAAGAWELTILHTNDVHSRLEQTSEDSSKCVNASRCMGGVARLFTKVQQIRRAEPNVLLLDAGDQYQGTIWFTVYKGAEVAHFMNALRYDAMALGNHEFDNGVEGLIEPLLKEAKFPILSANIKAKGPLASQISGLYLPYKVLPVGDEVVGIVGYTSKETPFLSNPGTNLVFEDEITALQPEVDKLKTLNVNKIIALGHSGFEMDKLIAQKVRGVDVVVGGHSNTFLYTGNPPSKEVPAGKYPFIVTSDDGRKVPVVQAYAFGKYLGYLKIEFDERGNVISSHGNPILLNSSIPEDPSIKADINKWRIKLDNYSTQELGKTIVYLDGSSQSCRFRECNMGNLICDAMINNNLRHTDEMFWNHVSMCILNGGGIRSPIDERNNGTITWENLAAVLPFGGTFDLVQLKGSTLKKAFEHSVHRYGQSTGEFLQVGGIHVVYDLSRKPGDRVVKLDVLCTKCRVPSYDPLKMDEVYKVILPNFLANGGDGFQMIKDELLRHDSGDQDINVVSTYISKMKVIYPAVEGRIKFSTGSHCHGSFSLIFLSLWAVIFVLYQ

As for `Nc1nc(Cl)nc2c1ncn2[C@@H]1O[C@H](CO)[C@@H](O)[C@@H]1F` [CLOFARABINE], the IC50 in the experiment on Granta was determined as 0.017 µM; in the experiment with CCRF-CEM it was 0.044 µM; with HL-60, 0.04 µM; with RL, 0.38 µM.

Regarding `Nc1nc(Cl)nc2c1ncn2[C@H]1C[C@H](O)[C@@H](COP(=O)(O)CP(=O)(O)O)O1`, the inhibition result at 5'-nucleotidase [1] was “Active”. The half-maximal inhibitory concentration (IC50) on 5'-nucleotidase [2] was determined as 2 µM; at 5'-nucleotidase [3], 147 µM.

Turning to `Nc1ncnc2c1ncn2[C@@H]1O[C@H](COP(=O)(O)CP(=O)(O)O)[C@@H](O)[C@H]1O` [PHOSPHOMETHYLPHOSPHONIC ACID ADENOSYL ESTER], the half-inhibitory concentration (IC50) at 5'-nucleotidase [1] was found to be 3.8 µM; on 5'-nucleotidase [2], 23.6 µM; on 5'-nucleotidase [3], 21.4 µM.

Consider `Nc1nc(F)nc2c1ncn2[C@@H]1O[C@H](COP(=O)(O)CP(=O)(O)O)[C@@H](O)[C@@H]1O`, for which the inhibition result on 5'-nucleotidase [1] is “Active”. Moreover, the concentration for half-maximal inhibition (IC50) at 5'-nucleotidase [2] amounted to 2.2 µM; on 5'-nucleotidase [3] it was 112 µM.

As to `Nc1nc(Cl)nc2c1ncn2[C@@H]1O[C@H](COP(=O)(O)CP(=O)(O)O)[C@@H](O)[C@@H]1F`, the IC50 at 5'-nucleotidase [1] stood at 0.18 µM; on 5'-nucleotidase [2] it was 0.24 µM; at 5'-nucleotidase [3], 3.2 µM; in the experiment with Granta, 39.5 µM; in the experiment with CCRF-CEM it was 50.6 µM; with HL-60, 49.4 µM. Besides, the concentration for half-maximal inhibition (IC50) in the experiment with RL was greater than 300 µM.
